Measurements published in patent publication US20180244699A1, “1-HYDROXY-3H-2,1-BENZOXABOROLE DERIVATIVES AND THEIR USE AS MICROBIOCIDES” (Syngenta Participations AG, priority 2015, published 2018).

Assays:
Assay type in all cases: cell-based
[1] = test system: Glomerella lagenarium (Colletotrichum lagenarium); assay: Glomerella lagenarium (Colletotrichum lagenarium) / liquid culture (anthracnose); settings: Colletotrichum orbiculare, growth inhibition photometrically 3-4 days after application, compared to untreated control
Protocol: (§1) 3. Glomerella lagenarium (Colletotrichum lagenarium)/Liquid Culture (Anthracnose) Conidia of the fungus from cryogenic storage are directly mixed into nutrient broth (PDB potato dextrose broth). After placing a (DMSO) solution of test compound into a microtiter plate (96-well format), the nutrient broth containing the fungal spores is added. The test plates are incubated at 24° C. and the inhibition of growth is measured photometrically 3-4 days after application.

[2] = test system: Mycosphaerella arachidis (Cercospora arachidicola); assay: Mycosphaerella arachidis (Cercospora arachidicola) / liquid culture (early leaf spot); settings: growth inhibition photometrically 4-5 days after application, compared to untreated control
Protocol: as §1, with “9. Mycosphaerella arachidis (Cercospora arachidicola)/Liquid” for “3. Glomerella lagenarium (Colletotrichum lagenarium)/Liquid”, “(Early Leaf Spot)” for “(Anthracnose)”, “determined” for “measured”, “4-5” for “3-4”

Pythium ultimum = Pythium ultimum / liquid culture (seedling damping off); settings: Globisporangium ultimum, growth inhibition photometrically 2-3 days after application, compared to untreated control
Method in brief: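 Fungal mycelia fragments and oospores from fresh liquid culture mixed into potato dextrose broth and added to DMSO solutions of test compound. Incubated at 24° C.; growth inhibition read photometrically 2-3 days after application.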

[3] = test system: Monographella nivalis (Microdochium nivale); assay: Monographella nivalis (Microdochium nivale) / liquid culture (foot rot cereals); settings: growth inhibition photometrically 4-5 days after application, compared to untreated control
Protocol: as §1, with “8. Monographella nivalis (Microdochium nivale)/Liquid” for “3. Glomerella lagenarium (Colletotrichum lagenarium)/Liquid”, “(Foot Rot Cereals)” for “(Anthracnose)”, “determined” for “measured”, “4-5” for “3-4”

Gaeumannomyces graminis = Gaeumannomyces graminis / liquid culture (take-all of cereals); settings: growth inhibition photometrically 4-5 days after application, compared to untreated control
Protocol: (§2) 6. Gaeumannomyces Graminis/Liquid Culture (Take-all of Cereals) Mycelial fragments of the fungus from cryogenic storage were directly mixed into nutrient broth (PDB potato dextrose broth). After placing a (DMSO) solution of test compound into a microtiter plate (96-well format), the nutrient broth containing the fungal spores is added. The test plates are incubated at 24° C. and the inhibition of growth is determined photometrically 4-5 days after application.

[4] = test system: Thanatephorus cucumeris (Rhizoctonia solani); assay: Thanatephorus cucumeris (Rhizoctonia solani) / liquid culture (foot rot, damping-off); settings: growth inhibition photometrically 3-4 days after application, compared to untreated control
Protocol: 16. Thanatephorus cucumeris (Rhizoctonia solani)/Liquid Culture (Foot Rot, Damping-Off) Mycelia fragments of a newly grown liquid culture of the fungus are directly mixed into nutrient broth (PDB potato dextrose broth). After placing a (DMSO) solution of the test compounds into a microtiter plate (96-well format), the nutrient broth containing the fungal material is added. The test plates are incubated at 24° C. and the inhibition of growth is determined photometrically 3-4 days after application.

Sclerotinia sclerotiorum = Sclerotinia sclerotiorum / liquid culture (cottony rot); settings: growth inhibition photometrically 3-4 days after application, compared to untreated control
Protocol: 17. Sclerotinia sclerotiorum/Liquid Culture (Cottony Rot) Mycelia fragments of a newly grown liquid culture of the fungus are directly mixed into nutrient broth (PDB potato dextrose broth). After placing a (DMSO) solution of test compound into a microtiter plate (96-well format) the nutrient broth containing the fungal material is added. The test plates are incubated at 24° C. and the inhibition of growth is determined photometrically 3-4 days after application.

[5] = test system: Mycosphaerella graminicola (Septoria tritici); assay: Mycosphaerella graminicola (Septoria tritici) / liquid culture (Septoria blotch); settings: Zymoseptoria tritici, growth inhibition photometrically 4-5 days after application, compared to untreated control
Protocol: as §2, with “18. Mycosphaerella graminicola (Septoria tritici)/Liquid” for “6. Gaeumannomyces Graminis/Liquid”, “(Septoria Blotch) Conidia” for “(Take-all of Cereals) Mycelial fragments”, “are” for “were”

Measured: inhibition of growth at 20 ppm

CCOc1c(C(=O)OC)ccc2c1B(O)OC2 [Compound 4, methyl 7-ethoxy-1-hydroxy-3H-2,1-benzoxaborole-6-carboxylate]
≥ 80%: all assays above

COC(=O)c1ccc2c(c1OC(F)F)B(O)OC2 [Compound 16, methyl 7-(difluoromethoxy)-1-hydroxy-3H-2,1-benzoxaborole-6-carboxylate]
≥ 80%: [2] | Pythium ultimum | Gaeumannomyces graminis | Sclerotinia sclerotiorum

COc1c(C(=O)Nc2nnc(C(F)(F)F)s2)ccc2c1B(O)OC2 [Compound 64, 1-hydroxy-7-methoxy-N-[5-(trifluoromethyl)-1,3,4-thiadiazol-2-yl]-3H-2,1-benzoxaborole-6-carboxamide]
≥ 80%: [1] | Pythium ultimum | [3] | Gaeumannomyces graminis | Sclerotinia sclerotiorum

COC(=O)C#CCOC(=O)c1ccc2c(c1OC)B(O)OC2 [Compound 79, (4-methoxy-4-oxo-but-2-ynyl) 1-hydroxy-7-methoxy-3H-2,1-benzoxaborole-6-carboxylate]
≥ 80%: all assays above

COc1c(C(=O)OC(C)c2cccc(Cl)c2)ccc2c1B(O)OC2 (stereo not drawn) [Compound 83, 1-(3-chlorophenyl)ethyl 1-hydroxy-7-methoxy-3H-2,1-benzoxaborole-6-carboxylate]
not listed: [2] | Sclerotinia sclerotiorum
≥ 80%: all other assays above

COc1c(C(=O)OCCc2scnc2C)ccc2c1B(O)OC2 [Compound 84, 2-(4-methylthiazol-5-yl)ethyl 1-hydroxy-7-methoxy-3H-2,1-benzoxaborole-6-carboxylate]
≥ 80%: [1] | [2] | Pythium ultimum | [3] | Gaeumannomyces graminis

COc1c(C(=O)OCc2ccccc2)ccc2c1B(O)OC2 [Compound 85, benzyl 1-hydroxy-7-methoxy-3H-2,1-benzoxaborole-6-carboxylate]
not listed: [2] | Sclerotinia sclerotiorum
≥ 80%: all other assays above

COc1c(C(=O)OC(CC(F)(F)F)c2ccccc2)ccc2c1B(O)OC2 (stereo not drawn) [Compound 89, (3,3,3-trifluoro-1-phenyl-propyl) 1-hydroxy-7-methoxy-3H-2,1-benzoxaborole-6-carboxylate]
≥ 80%: [1] | Pythium ultimum | [3] | Gaeumannomyces graminis | [4]

CCN(CC)C(=O)COC(=O)c1ccc2c(c1OC)B(O)OC2 [Compound 94, [2-(diethylamino)-2-oxo-ethyl] 1-hydroxy-7-methoxy-3H-2,1-benzoxaborole-6-carboxylate]
≥ 80%: all assays above

CCC1=NC(C)(COC(=O)c2ccc3c(c2OC)B(O)OC3)CO1 (stereo not drawn) [Compound 99, (2-ethyl-4-methyl-5H-oxazol-4-yl)methyl 1-hydroxy-7-methoxy-3H-2,1-benzoxaborole-6-carboxylate]
≥ 80%: all assays above

COc1c(C(=O)OCC2SCCS2)ccc2c1B(O)OC2 [Compound 100, 1,3-dithiolan-2-ylmethyl 1-hydroxy-7-methoxy-3H-2,1-benzoxaborole-6-carboxylate]
≥ 80%: [1] | Pythium ultimum | [3] | Gaeumannomyces graminis | [4]

CC#CCCOC(=O)c1ccc2c(c1OC)B(O)OC2 [Compound 105, pent-3-ynyl 1-hydroxy-7-methoxy-3H-2,1-benzoxaborole-6-carboxylate]
not listed: [4] | Sclerotinia sclerotiorum
≥ 80%: all other assays above

COc1cccc(C#CCOC(=O)c2ccc3c(c2OC)B(O)OC3)c1 [Compound 107, 3-(3-methoxyphenyl)prop-2-ynyl 1-hydroxy-7-methoxy-3H-2,1-benzoxaborole-6-carboxylate]
not listed: [2] | Sclerotinia sclerotiorum
≥ 80%: all other assays above

COc1c(C(=O)OCCc2ccccc2)ccc2c1B(O)OC2 [Compound 110, phenethyl 1-hydroxy-7-methoxy-3H-2,1-benzoxaborole-6-carboxylate]
not listed: [4] | Sclerotinia sclerotiorum
≥ 80%: all other assays above

CCOC(=O)COC(=O)c1ccc2c(c1OC)B(O)OC2 [Compound 111, (2-ethoxy-2-oxo-ethyl) 1-hydroxy-7-methoxy-3H-2,1-benzoxaborole-6-carboxylate]
≥ 80%: [1] | Pythium ultimum | [3] | Gaeumannomyces graminis | [4]

COc1c(C(=O)OCC(C)(C)Cc2ccccc2)ccc2c1B(O)OC2 [Compound 117, (2,2-dimethyl-3-phenyl-propyl) 1-hydroxy-7-methoxy-3H-2,1-benzoxaborole-6-carboxylate]
≥ 80%: [1] | [3] | Gaeumannomyces graminis | [4] | [5]

COc1c(C(=O)OCCc2ccccc2F)ccc2c1B(O)OC2 [Compound 124, 2-(2-fluorophenyl)ethyl 1-hydroxy-7-methoxy-3H-2,1-benzoxaborole-6-carboxylate]
not listed: [2] | Sclerotinia sclerotiorum
≥ 80%: all other assays above

COc1c(C(=O)OC(C)CCc2ccccc2)ccc2c1B(O)OC2 (stereo not drawn) [Compound 130, (1-methyl-3-phenyl-propyl) 1-hydroxy-7-methoxy-3H-2,1-benzoxaborole-6-carboxylate]
not listed: [2] | Sclerotinia sclerotiorum
≥ 80%: all other assays above
